Measured values taken from paper PMC9069370, “Integrated Design of a Membrane‐Lytic Peptide‐Based Intravenous Nanotherapeutic Suppresses Triple‐Negative Breast Cancer” (Advanced Science, 2022).
Where a name gives a salt, the structure may show the parent alone.

Columns and labels:
Type in all cases: cell-based, human
MCF‐10A = test: cells
Description: (§1) […], and MCF-10A cells were maintained in MEGM with supplements and growth factors bovine pituitary extract, hydrocortisone, human epidermal growth factor, insulin, and gentamicin/amphotericin-B.

HMLER‐shEcad [1] = test: cells; conditions: for IC50: Homo sapiens, 2D culture
Description: as §1

MCF‐10A mammospheres = test: Mammosphere viability assay (TOX8)
[2] = test system: HMLER‐shEcad tumorspheres; test: cells
HMLER‐shEcad [3] = test: Resistance formation after prolonged drug exposure, 2D culture; conditions: Homo sapiens
Method: Cancer stem cells can survive treatment, gain resistance, and reseed tumors, presenting a major challenge for chemotherapy.^[ [2] ^] […] Drugs were added with medium every 3–4 days, maintaining smooth cell growth, and 125 000 cells were split into new T25 flasks with a total volume of 5 mL once per week.

Compound: COc1cccc2c1C(=O)c1c(O)c3c(c(O)c1C2=O)C[C@@](O)(C(=O)CO)C[C@@H]3O[C@H]1C[C@H](N)[C@H](O)[C@H](C)O1 [Doxorubicin, Doxorubicin hydrochloride, reference compound]
- therapeutic window (fold IC50) in 2D assays (MCF‐10A; 2D assays): > 100 fold
- selectivity for cancerous cells over non‐tumorigenic MCF‐10A (MCF‐10A; 2D culture, ratio of IC50): > 160 fold
- IC90 in 2D assay (HMLER‐shEcad [1]; 2D HMLER‐shEcad (Figure 3d,f), cells remained viable in the high micromolar range): could not be attained
- IC50 (HMLER‐shEcad [1]; read-out: IC50, HMLER-shEcad cell viability, co-incubation with 5 µM z-VAD-FMK): 47.7 ± 2.6 nM
- IC50 (HMLER‐shEcad [1]; read-out: IC50, HMLER-shEcad cell viability, co-incubation with 20 µM necrostatin-1): 63.1 ± 4.2 nM
- IC50 (HMLER‐shEcad [1]; read-out: IC50, HMLER-shEcad cell viability, compound alone): 3.1 ± 0.4 nM
- IC90 against MCF‐10A mammospheres (MCF‐10A mammospheres): 167000 ± 7000 nM
- therapeutic window (fold IC50) in the 3D assay (MCF‐10A mammospheres; 3D spheroid assay): ≈ 3 fold
- tumorsphere cell viability ([2]; HMLER‐shEcad tumorspheres, at 133 µM): > 15%
- IC50 ([2]; Homo sapiens, 120 h, 3D multicellular spheroids, 5 days, TOX8 fluorescence read-out, read-out: IC50 against HMLER‐shEcad tumorspheres): 43000 ± 6000 nM
- IC90 ([2]; Homo sapiens, 3D multicellular spheroids, reducing tumorsphere cell viability by 90%, read-out: IC90 against HMLER‐shEcad tumorspheres): 138000 ± 11000 nM
- IC50 (HMLER‐shEcad [3]; 240 h, 2D HMLER‐shEcad after 10 days co‐incubation with 30 nM doxorubicin, read-out: IC50 of doxorubicin after prolonged doxorubicin exposure): 189 ± 68 nM
- IC50 (HMLER‐shEcad [3]; 2D HMLER‐shEcad, vehicle, read-out: IC50 of doxorubicin, cells before/without doxorubicin exposure): 24 ± 2 nM
